Results taken from ChEMBL document CHEMBL1150707, “Isolation, structure, and synthesis of combretastatins A-1 and B-1, potent new inhibitors of microtubule assembly, derived from Combretum caffrum” (1987).
In brackets after ≈: the same amount, converted by molar mass. Activity calls are given as the source filed them. The rule behind the calls is not given here.

What was measured:
[1] = test system: P388; experiment: In vivo cytotoxicity against mouse P388 cells; assay type: functional
[2] = Inhibition of microtubule assembly by turbidimetry
[3] = Displacement of [3H]colchicine from tubulin after 10 mins relative to control; set-up: concentration or dose not given beside the values
[4] = test system: P388; experiment: In vivo cytotoxicity against mouse P388 cells assessed as increase in life extension at 2.75 to 11 mg/kg; assay type: functional; conditions: dose mg/kg 2.75-11

SMILES | ED50 [1] | ID50 [2] | Activity [3] | Activity [4]
COc1cc(/C=C/c2ccc(OC)c(O[Si](C)(C)C(C)(C)C)c2O[Si](C)(C)C(C)(C)C)cc(OC)c1OC | inactive |  |  | 
COc1ccc(CCc2cc(OC)c(OC)c(OC)c2)c(O)c1O |  | 3 µM | 13% | 
COc1cc(/C=C\c2ccc(OC)c(O[Si](C)(C)C(C)(C)C)c2O[Si](C)(C)C(C)(C)C)cc(OC)c1OC | inactive |  |  | 
COc1cc(/C=C/c2ccc(OC)c(OC(C)=O)c2OC(C)=O)cc(OC)c1OC | 12 µg/mL (≈ 28.8 µM) |  |  | 
COc1cc(/C=C\c2ccc(OC)c(OC(C)=O)c2OC(C)=O)cc(OC)c1OC | 2.7 µg/mL (≈ 6.48 µM) |  |  | 
COc1ccc(/C=C\c2cc(OC)c(OC)c(OC)c2)c(O)c1O [COMBRETASTATIN A-1] | 0.99 µg/mL (≈ 2.98 µM) | 2 µM | 2.2% | 26%
COc1cc([C@@H]2c3cc4c(cc3[C@H](O)[C@H]3COC(=O)[C@H]23)OCO4)cc(OC)c1OC |  | 3 µM | 13% | 
COc1cc2c(c(OC)c1OC)-c1ccc(OC)c(=O)cc1[C@@H](NC(C)=O)CC2 |  | 6 µM |  | 
COc1ccc(C[C@@H](O)c2cc(OC)c(OC)c(OC)c2)cc1O |  | 11 µM | 34% | 
COc1cc2c(c(OC)c1OC)-c1cc3c(cc1[C@@H](OC(C)=O)C1COC(=O)[C@H]1C2)OCO3 (some centres not stated) |  | 6 µM | 49% | 
